Assays:
BT-474 Tam1 [1] = test: drug sensitivity score (DSS) (DSS (dimensionless)); higher = more sensitive; extreme values may be limits of the assay; settings: 4-OH-tamoxifen in medium 1 µM; 72 h
Procedure, shortened: (§1)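 Drug sensitivity score, relative IC50 as the curve midpoint, and top-dose inhibition were derived from logistic dose–response fits in the Breeze pipeline. These fits used CellTiter-Glo viability, read on a PHERAstar and normalised to vehicle-only and positive controls. Breast cancer cell lines and resistant derivatives had been incubated for 72 h at 37 °C in 384-well plates holding library drugs at five concentrations spanning a 10 000-fold range. Resistant lines were grown in medium with 1 μM of the selecting drug.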

BT-474 Tam2 [2] = test: as above; settings: 4-OH-tamoxifen in medium 1 µM; 72 h
Procedure, shortened: as §1

BT-474 [3] = test: as above; settings: 72 h
Procedure, shortened: as §1

MCF-7 Tam1 [4] = test: as above; settings: 4-OH-tamoxifen in medium 1 µM; 72 h
Procedure, shortened: as §1

MCF-7 [5] = test: as above; settings: 72 h
Procedure, shortened: as §1

T-47D Tam1 [6] = test: as above; settings: 4-OH-tamoxifen in medium 1 µM; 72 h
Procedure, shortened: as §1

T-47D Tam2 [7] = test: as above; settings: 4-OH-tamoxifen in medium 1 µM; 72 h
Procedure, shortened: as §1

T-47D [8] = test: as above; settings: 72 h
Procedure, shortened: as §1

ZR-75-1 Tam1 [9] = test: as above; settings: 4-OH-tamoxifen in medium 1 µM; 72 h
Procedure, shortened: as §1

ZR-75-1 Tam2 [10] = test: as above; settings: 4-OH-tamoxifen in medium 1 µM; 72 h
Procedure, shortened: as §1

ZR-75-1 [11] = test: as above; settings: 72 h
Procedure, shortened: as §1

BT-474 Tam1 [12] = test: relative IC50 (midpoint of fitted logistic curve, plateau may be below 50% inhibition; CellTiter-Glo viability); higher = less potent; settings: 4-OH-tamoxifen in medium 1 µM; 72 h
Procedure, shortened: as §1

BT-474 Tam2 [13] = test: as above; settings: 4-OH-tamoxifen in medium 1 µM; 72 h
Procedure, shortened: as §1

BT-474 [14] = test: as above; settings: 72 h
Procedure, shortened: as §1

MCF-7 Tam1 [15] = test: as above; settings: 4-OH-tamoxifen in medium 1 µM; 72 h
Procedure, shortened: as §1

MCF-7 [16] = test: as above; settings: 72 h
Procedure, shortened: as §1

T-47D Tam1 [17] = test: as above; settings: 4-OH-tamoxifen in medium 1 µM; 72 h
Procedure, shortened: as §1

T-47D Tam2 [18] = test: as above; settings: 4-OH-tamoxifen in medium 1 µM; 72 h
Procedure, shortened: as §1

T-47D [19] = test: as above; settings: 72 h
Procedure, shortened: as §1

ZR-75-1 Tam1 [20] = test: as above; settings: 4-OH-tamoxifen in medium 1 µM; 72 h
Procedure, shortened: as §1

ZR-75-1 Tam2 [21] = test: as above; settings: 4-OH-tamoxifen in medium 1 µM; 72 h
Procedure, shortened: as §1

ZR-75-1 [22] = test: as above; settings: 72 h
Procedure, shortened: as §1

Structure (SMILES): CC(C)C[C@H](NC(=O)[C@H](Cc1ccccc1)NC(=O)c1cnccn1)B(O)O [Bortezomib]
- drug sensitivity score (BT-474 Tam1 [1]): 29.5
- drug sensitivity score (BT-474 Tam2 [2]): 26.7
- drug sensitivity score (BT-474 [3]; 4-OH-tamoxifen in medium 0 µM): 13.2
- drug sensitivity score (BT-474 [3]; 4-OH-tamoxifen in medium 1 µM): 29.1
- drug sensitivity score (MCF-7 Tam1 [4]): 11.3
- drug sensitivity score (MCF-7 [5]; 4-OH-tamoxifen in medium 0 µM): 19.9
- drug sensitivity score (MCF-7 [5]; 4-OH-tamoxifen in medium 1 µM): 14
- drug sensitivity score (T-47D Tam1 [6]): 30.4
- drug sensitivity score (T-47D Tam2 [7]): 26.5
- drug sensitivity score (T-47D [8]; 4-OH-tamoxifen in medium 0 µM): 25.6
- drug sensitivity score (T-47D [8]; 4-OH-tamoxifen in medium 1 µM): 23.7
- drug sensitivity score (ZR-75-1 Tam1 [9]): 13.9
- drug sensitivity score (ZR-75-1 Tam2 [10]): 16.4
- drug sensitivity score (ZR-75-1 [11]; 4-OH-tamoxifen in medium 0 µM): 9.65
- drug sensitivity score (ZR-75-1 [11]; 4-OH-tamoxifen in medium 1 µM): 10.7
- relative IC50 (BT-474 Tam1 [12]): 3.55 nM
- relative IC50 (BT-474 Tam2 [13]): 5.98 nM
- relative IC50 (BT-474 [14]; 4-OH-tamoxifen in medium 0 µM): 12.7 nM
- relative IC50 (BT-474 [14]; 4-OH-tamoxifen in medium 1 µM): 3.72 nM
- relative IC50 (MCF-7 Tam1 [15]): 39.9 nM
- relative IC50 (MCF-7 [16]; 4-OH-tamoxifen in medium 0 µM): 6.82 nM
- relative IC50 (MCF-7 [16]; 4-OH-tamoxifen in medium 1 µM): 44.5 nM
- relative IC50 (T-47D Tam1 [17]): 2.79 nM
- relative IC50 (T-47D Tam2 [18]): 5.5 nM
- relative IC50 (T-47D [19]; 4-OH-tamoxifen in medium 0 µM): 6.27 nM
- relative IC50 (T-47D [19]; 4-OH-tamoxifen in medium 1 µM): 8.31 nM
- relative IC50 (ZR-75-1 Tam1 [20]): 20.1 nM
- relative IC50 (ZR-75-1 Tam2 [21]): 8.96 nM
- relative IC50 (ZR-75-1 [22]; 4-OH-tamoxifen in medium 0 µM): 73.1 nM
- relative IC50 (ZR-75-1 [22]; 4-OH-tamoxifen in medium 1 µM): 31.4 nM

Structure (SMILES): Cc1c(CN2CCN(C(=O)[C@H](C)O)CC2)sc2c(N3CCOCC3)nc(-c3cnc(N)nc3)nc12 [GDC-0980]
- drug sensitivity score (BT-474 Tam1 [1]): 18.3
- drug sensitivity score (BT-474 Tam2 [2]): 15.1
- drug sensitivity score (BT-474 [3]; 4-OH-tamoxifen in medium 0 µM): 13.5
- drug sensitivity score (BT-474 [3]; 4-OH-tamoxifen in medium 1 µM): 18.4
- drug sensitivity score (MCF-7 Tam1 [4]): 9.79
- drug sensitivity score (MCF-7 [5]; 4-OH-tamoxifen in medium 0 µM): 17.4
- drug sensitivity score (MCF-7 [5]; 4-OH-tamoxifen in medium 1 µM): 15.9
- drug sensitivity score (T-47D Tam1 [6]): 15.3
- drug sensitivity score (T-47D Tam2 [7]): 12.4
- drug sensitivity score (T-47D [8]; 4-OH-tamoxifen in medium 0 µM): 14.7
- drug sensitivity score (T-47D [8]; 4-OH-tamoxifen in medium 1 µM): 12.1
- drug sensitivity score (ZR-75-1 Tam1 [9]): 13.5
- drug sensitivity score (ZR-75-1 Tam2 [10]): 14.9
- drug sensitivity score (ZR-75-1 [11]; 4-OH-tamoxifen in medium 0 µM): 16.5
- drug sensitivity score (ZR-75-1 [11]; 4-OH-tamoxifen in medium 1 µM): 11.8
- relative IC50 (BT-474 Tam1 [12]): 154 nM
- relative IC50 (BT-474 Tam2 [13]): 303 nM
- relative IC50 (BT-474 [14]; 4-OH-tamoxifen in medium 0 µM): 137 nM
- relative IC50 (BT-474 [14]; 4-OH-tamoxifen in medium 1 µM): 170 nM
- relative IC50 (MCF-7 Tam1 [15]): 226 nM
- relative IC50 (MCF-7 [16]; 4-OH-tamoxifen in medium 0 µM): 123 nM
- relative IC50 (MCF-7 [16]; 4-OH-tamoxifen in medium 1 µM): 146 nM
- relative IC50 (T-47D Tam1 [17]): 117 nM
- relative IC50 (T-47D Tam2 [18]): 212 nM
- relative IC50 (T-47D [19]; 4-OH-tamoxifen in medium 0 µM): 199 nM
- relative IC50 (T-47D [19]; 4-OH-tamoxifen in medium 1 µM): 390 nM
- relative IC50 (ZR-75-1 Tam1 [20]): 178 nM
- relative IC50 (ZR-75-1 Tam2 [21]): 160 nM
- relative IC50 (ZR-75-1 [22]; 4-OH-tamoxifen in medium 0 µM): 86.5 nM
- relative IC50 (ZR-75-1 [22]; 4-OH-tamoxifen in medium 1 µM): 145 nM
